How the values were obtained:
V1aR = V1aR (Homo sapiens, UniProt P37288); experiment: 3H-AVP competition binding on V1aR membranes; conditions: toxin at 1 μM
Experimental: Membranes from cells expressing vasopressin receptors were purchased from […] (Courtaboeuf, France). Binding experiments were performed with ^3H-AVP ([…], Courtaboeuf, France) in 96-well plates. Reaction mixtures contained 50 mM Tris-HCl, pH 7.4, 10 mM MgCl2 and 1 g/L BSA in a final volume of 100 μL. Plates were incubated for 3 h at room temperature. Binding reactions were stopped by filtration through a GF/C filter pre-soaked in 0.5% polyethyleneimine on a cell harvester ([…], Courtaboeuf, France) and plates were dried. Ultimagold O (25 μl; […]) was added to each well and samples were counted using a TopCount counter ([…], Courtaboeuf, France) (Counting yield of 55%). […] A one-site inhibition mass action curve was fitted to inhibition binding data using Kaleidagraph (SYNERGY SOFTWARE, Reading, Pa., USA). IC50 values were converted to Ki for competition experiments using the Cheng-Prusoff equation (Cheng et al., Biochem. Pharmacol., 1973, 22, 3099-3108).

hERG = biological target: T1, hERG (Homo sapiens, UniProt Q12809); experiment: IonWorks electrophysiological assay; format: cell-based; conditions: 1 μM
T1 construct: expressed in transfected cells
Experimental: (§1) The stock solution was transferred to a master plate and into assay plates where 2 μl per well of the solution were placed. On the day of the assay, 198 μl of external solution containing the appropriate DMSO concentration was added and mixed thoroughly. This provided a 1:100 dilution. A further 1:3 dilution occurred upon addition to the cells in the IonWorks, giving a 1:300 dilution in total. On each assay plate, at least 8 wells were reserved for vehicle control (0.3% DMSO) and at least 8 wells for each positive control specific to the cell line tested. The positive controls were tested at a maximal blocking and an approximate IC50 concentration. The compounds used for positive controls: Nav1.5 100 μM and 5 mM Lidocaine, Kv4.3/KChIP2 20 μM and 500 μM Quinidine, Cav1.2 1 μM and 100 μM Nitrendipine, Kv1.5 300 μM and 10 mM 4-AP, KCNQ1/minK 10 μM and 100 μM Chromanol 293B, hERG 0.1 μM and 1 μM Cisapride, HCN4 50 μM and 3 mM Cesium, Kir2.1 20 μM and 500 μM Barium.

Kv1.5 = biological target: T2, Kv1.5 (Homo sapiens, UniProt P22460); experiment: IonWorks electrophysiological assay; format: cell-based; conditions: 1 μM
T2 construct: expressed in transfected cells
Experimental: as §1

Kv4.3/KChIP2 = biological target: T3, Kv4.3/KChIP2 (Homo sapiens, UniProt Q9UK17); experiment: IonWorks electrophysiological assay; format: cell-based; conditions: 1 μM
T3 construct: expressed in transfected cells
T3 sequence (Q9UK17 1-655): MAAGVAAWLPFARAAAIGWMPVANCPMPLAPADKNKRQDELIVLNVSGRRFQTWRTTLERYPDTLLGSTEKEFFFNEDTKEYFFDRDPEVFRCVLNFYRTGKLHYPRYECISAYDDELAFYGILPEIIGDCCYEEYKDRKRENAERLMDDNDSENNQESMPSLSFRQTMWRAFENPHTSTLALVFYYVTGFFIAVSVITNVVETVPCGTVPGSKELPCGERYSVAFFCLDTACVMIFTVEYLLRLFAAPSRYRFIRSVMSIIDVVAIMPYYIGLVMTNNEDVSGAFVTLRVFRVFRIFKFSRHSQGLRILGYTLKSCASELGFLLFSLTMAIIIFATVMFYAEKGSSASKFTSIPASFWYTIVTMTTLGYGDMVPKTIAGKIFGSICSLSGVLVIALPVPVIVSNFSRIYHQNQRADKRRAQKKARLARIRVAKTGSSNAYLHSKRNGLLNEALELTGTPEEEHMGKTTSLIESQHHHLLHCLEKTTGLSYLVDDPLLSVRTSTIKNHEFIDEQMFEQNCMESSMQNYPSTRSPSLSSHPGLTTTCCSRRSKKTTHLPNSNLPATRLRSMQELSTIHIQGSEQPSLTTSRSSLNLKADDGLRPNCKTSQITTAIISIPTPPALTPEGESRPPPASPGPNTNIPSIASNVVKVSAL
T3 sequence (Q9NS61 1-270 partner): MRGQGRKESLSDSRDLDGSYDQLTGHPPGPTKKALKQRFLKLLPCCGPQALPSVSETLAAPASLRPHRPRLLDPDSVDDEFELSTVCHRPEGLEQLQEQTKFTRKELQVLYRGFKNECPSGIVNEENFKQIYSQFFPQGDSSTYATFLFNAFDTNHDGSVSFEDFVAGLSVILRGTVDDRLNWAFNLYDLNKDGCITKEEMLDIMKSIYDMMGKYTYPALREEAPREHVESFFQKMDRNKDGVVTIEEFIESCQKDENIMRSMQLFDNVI
Experimental: as §1

Cav1.2 = biological target: T4, Cav1.2 (Homo sapiens, UniProt Q13936); experiment: IonWorks electrophysiological assay; format: cell-based; conditions: 1 μM
T4 construct: expressed in transfected cells
Experimental: as §1

157 GPCRs = experiment: FLIPR agonist/antagonist profiling on 157 GPCRs; format: cell-based; conditions: 1 μM U-Da2a
Experimental: Percentage activation and percentage inhibition values were determined on each GPCR. […] Percentage inhibition values were determined upon addition of a reference agonist at an estimated EC80 concentration. All wells were prepared using EMD Millipore's GPCRProfiler® Assay Buffer. The GPCRProfiler® Assay Buffer was a modified Hanks Balanced Salt Solution (HBSS) where HBSS was supplemented to contain 20 mM HEPES and 2.5 mM Probenecid at pH7.4. […] The agonist assay was a total of 180 seconds and was used to assess each compound's ability to activate each GPCR assayed. […] The antagonist assay was conducted using the same assay plate and the same apparatus that was used for the agonist assay. All assay plate data were subjected to appropriate baseline corrections. After baseline corrections were applied, maximum fluorescence values were exported and data processed to calculate percentage activation (relative to Emax reference agonist and vehicle control values), percentage inhibition (relative to EC80 and vehicle control values), and additional statistical values (i.e. Z′, percentage variation between replicate data values) to assess the quality of each plate. Where assay plate data were rejected, additional experiments were conducted.

T2 sequence (P22460 whole entry): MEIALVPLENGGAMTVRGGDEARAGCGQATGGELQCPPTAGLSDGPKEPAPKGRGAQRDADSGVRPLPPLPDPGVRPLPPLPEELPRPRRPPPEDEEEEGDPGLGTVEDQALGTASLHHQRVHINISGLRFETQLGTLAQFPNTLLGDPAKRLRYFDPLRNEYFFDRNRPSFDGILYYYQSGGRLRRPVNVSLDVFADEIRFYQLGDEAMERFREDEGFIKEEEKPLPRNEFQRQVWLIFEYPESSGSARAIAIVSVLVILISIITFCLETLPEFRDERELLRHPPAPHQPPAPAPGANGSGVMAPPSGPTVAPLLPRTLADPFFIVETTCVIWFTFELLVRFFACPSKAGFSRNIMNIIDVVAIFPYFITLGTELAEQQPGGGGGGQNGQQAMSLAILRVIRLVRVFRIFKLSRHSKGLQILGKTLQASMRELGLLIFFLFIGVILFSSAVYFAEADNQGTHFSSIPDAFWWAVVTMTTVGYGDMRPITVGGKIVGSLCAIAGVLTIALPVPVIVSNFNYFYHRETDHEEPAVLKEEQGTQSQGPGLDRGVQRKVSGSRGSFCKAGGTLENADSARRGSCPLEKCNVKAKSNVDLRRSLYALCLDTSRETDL
T4 sequence (Q13936 whole entry): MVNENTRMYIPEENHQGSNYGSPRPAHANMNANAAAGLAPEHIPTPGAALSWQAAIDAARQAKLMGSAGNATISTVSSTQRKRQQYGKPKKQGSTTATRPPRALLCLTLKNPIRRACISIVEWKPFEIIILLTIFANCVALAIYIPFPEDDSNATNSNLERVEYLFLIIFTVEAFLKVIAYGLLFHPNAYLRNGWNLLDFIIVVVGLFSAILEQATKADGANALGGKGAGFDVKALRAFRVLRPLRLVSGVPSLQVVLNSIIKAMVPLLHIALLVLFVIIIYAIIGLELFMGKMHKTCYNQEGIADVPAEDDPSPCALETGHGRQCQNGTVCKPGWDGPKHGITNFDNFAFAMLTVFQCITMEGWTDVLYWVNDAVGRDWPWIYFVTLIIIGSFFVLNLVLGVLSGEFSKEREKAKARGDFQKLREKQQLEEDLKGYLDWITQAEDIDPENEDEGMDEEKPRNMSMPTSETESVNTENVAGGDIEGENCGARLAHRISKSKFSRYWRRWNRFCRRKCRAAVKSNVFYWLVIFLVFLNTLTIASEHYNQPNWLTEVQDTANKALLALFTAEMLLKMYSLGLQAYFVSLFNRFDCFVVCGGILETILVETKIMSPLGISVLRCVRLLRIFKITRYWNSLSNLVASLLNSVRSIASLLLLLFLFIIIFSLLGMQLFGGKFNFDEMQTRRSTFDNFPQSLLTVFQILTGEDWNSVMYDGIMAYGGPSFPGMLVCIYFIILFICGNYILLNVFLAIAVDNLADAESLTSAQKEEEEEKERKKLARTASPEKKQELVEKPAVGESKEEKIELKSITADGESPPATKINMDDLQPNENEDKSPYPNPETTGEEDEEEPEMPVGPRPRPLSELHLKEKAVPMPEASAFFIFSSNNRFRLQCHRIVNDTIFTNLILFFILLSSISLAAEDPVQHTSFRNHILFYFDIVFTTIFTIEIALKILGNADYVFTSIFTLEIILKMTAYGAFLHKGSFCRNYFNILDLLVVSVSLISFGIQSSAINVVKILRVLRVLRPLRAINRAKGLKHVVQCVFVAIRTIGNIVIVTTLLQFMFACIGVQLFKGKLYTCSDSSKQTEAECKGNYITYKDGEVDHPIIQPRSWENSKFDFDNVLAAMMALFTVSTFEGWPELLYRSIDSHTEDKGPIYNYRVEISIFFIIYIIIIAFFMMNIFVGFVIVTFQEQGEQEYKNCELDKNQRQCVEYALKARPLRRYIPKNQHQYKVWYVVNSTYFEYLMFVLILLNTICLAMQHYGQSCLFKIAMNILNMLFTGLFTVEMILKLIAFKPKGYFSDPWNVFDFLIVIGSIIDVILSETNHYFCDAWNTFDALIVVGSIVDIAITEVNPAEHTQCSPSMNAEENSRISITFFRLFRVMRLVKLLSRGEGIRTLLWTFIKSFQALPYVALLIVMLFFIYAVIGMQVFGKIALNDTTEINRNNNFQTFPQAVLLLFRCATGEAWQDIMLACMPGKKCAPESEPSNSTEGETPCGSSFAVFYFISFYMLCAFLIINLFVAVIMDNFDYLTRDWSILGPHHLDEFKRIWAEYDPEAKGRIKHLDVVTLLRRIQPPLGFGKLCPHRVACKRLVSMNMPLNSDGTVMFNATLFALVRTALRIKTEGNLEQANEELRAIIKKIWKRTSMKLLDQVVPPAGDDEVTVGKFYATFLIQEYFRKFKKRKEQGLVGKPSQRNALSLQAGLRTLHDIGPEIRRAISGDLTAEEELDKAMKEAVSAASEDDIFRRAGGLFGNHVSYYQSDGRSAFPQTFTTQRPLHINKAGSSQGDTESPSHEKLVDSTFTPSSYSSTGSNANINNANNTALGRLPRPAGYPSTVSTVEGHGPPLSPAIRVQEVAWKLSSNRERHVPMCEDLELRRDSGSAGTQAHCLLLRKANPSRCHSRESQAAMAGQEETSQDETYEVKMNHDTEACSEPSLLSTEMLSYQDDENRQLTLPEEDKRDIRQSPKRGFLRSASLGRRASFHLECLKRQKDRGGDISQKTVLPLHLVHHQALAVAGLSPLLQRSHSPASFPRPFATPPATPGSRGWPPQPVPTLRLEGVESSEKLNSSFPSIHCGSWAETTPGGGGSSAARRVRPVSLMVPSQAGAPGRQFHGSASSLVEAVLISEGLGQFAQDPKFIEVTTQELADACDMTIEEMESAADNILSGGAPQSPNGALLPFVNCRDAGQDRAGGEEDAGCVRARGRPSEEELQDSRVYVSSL
T4 sequence (Q08289 whole entry partner): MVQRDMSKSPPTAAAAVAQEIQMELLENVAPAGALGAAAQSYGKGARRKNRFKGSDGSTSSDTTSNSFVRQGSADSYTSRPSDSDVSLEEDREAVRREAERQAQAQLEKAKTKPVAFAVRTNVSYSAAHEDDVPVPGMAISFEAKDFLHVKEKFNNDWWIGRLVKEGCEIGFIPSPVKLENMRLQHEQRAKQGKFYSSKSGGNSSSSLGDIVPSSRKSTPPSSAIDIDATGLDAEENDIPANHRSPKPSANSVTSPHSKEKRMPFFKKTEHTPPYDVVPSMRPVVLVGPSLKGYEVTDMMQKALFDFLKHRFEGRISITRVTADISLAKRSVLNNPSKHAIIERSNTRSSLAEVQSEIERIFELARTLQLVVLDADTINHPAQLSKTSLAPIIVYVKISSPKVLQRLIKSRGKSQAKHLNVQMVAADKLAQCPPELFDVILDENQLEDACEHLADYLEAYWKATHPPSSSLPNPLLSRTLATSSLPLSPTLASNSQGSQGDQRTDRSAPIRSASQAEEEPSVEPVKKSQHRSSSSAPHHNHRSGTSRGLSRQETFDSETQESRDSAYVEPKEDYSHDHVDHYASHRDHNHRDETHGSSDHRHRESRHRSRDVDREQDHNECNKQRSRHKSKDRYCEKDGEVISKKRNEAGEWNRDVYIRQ
T4 sequence (P54289 25-956 partner limits assumed): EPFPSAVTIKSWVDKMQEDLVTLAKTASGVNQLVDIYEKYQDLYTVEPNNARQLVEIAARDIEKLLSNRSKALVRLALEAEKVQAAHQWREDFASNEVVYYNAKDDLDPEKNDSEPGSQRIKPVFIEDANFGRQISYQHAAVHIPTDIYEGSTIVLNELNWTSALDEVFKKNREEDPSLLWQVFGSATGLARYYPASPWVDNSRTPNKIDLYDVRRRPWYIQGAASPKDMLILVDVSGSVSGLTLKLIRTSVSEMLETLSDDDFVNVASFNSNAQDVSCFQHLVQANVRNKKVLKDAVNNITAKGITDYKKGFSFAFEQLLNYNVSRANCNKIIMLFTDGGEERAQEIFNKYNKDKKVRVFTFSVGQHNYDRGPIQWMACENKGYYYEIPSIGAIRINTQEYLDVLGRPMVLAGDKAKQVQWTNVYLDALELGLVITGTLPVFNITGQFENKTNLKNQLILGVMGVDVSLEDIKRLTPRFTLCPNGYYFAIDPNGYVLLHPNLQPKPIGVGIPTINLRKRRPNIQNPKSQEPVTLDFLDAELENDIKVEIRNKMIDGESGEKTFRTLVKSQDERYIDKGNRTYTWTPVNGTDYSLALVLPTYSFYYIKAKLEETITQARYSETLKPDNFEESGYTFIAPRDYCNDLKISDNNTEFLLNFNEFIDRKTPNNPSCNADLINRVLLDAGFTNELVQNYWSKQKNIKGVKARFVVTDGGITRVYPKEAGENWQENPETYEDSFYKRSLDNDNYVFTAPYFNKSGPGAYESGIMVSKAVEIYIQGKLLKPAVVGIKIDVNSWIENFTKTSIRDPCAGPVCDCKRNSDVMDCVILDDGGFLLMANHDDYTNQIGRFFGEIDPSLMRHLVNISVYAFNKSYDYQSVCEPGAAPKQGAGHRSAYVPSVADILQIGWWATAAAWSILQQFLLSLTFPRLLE
T4 sequence (P54289 957-1103 partner limits assumed): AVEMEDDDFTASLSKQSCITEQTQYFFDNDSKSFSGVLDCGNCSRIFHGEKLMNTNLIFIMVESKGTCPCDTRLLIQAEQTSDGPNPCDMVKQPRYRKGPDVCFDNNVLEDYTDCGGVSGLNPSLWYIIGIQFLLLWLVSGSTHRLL
Sequence of V1aR (P37288 whole entry): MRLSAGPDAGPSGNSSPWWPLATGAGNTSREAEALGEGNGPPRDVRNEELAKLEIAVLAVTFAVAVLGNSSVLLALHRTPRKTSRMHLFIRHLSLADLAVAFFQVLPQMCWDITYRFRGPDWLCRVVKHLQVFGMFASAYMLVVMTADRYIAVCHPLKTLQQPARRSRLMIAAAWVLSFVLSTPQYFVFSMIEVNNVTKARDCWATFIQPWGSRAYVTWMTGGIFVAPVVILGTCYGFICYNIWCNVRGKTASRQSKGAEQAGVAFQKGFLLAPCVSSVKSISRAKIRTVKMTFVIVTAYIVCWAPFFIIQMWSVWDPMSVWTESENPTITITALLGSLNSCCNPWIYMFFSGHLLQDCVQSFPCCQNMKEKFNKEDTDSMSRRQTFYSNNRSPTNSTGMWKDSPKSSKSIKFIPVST

For `CC[C@H](C)[C@@H]1NC(=O)[C@H]([C@@H](C)O)NC(=O)[C@H](CO)NC(=O)[C@H](Cc2ccccc2)NC(=O)[C@H](CCCNC(=N)N)NC(=O)[C@H](CC(N)=O)NC(=O)[C@H](C)NC(=O)[C@H](CC(N)=O)NC(=O)CNC(=O)[C@H](CCCCN)NC(=O)[C@@H]2CSSC[C@@H]3NC(=O)[C@@H]4CCCN4C(=O)CNC(=O)[C@@H]4CCCN4C(=O)[C@H](CCCCN)NC(=O)[C@H](C(C)C)NC(=O)[C@@H]4CCCN4C(=O)[C@H](CC(C)C)NC(=O)[C@H](CC(N)=O)NC(=O)[C@@H](NC(=O)[C@H](Cc4ccccc4)NC(=O)[C@H](CO)NC(=O)[C@@H]4CCCN4C(=O)[C@@H](N)CCCNC(=N)N)CSSC[C@@H](C(=O)N[C@H](C(=O)NCC(=O)O)C(C)C)NC(=O)[C@H]([C@@H](C)O)NC(=O)[C@H](CCCNC(=N)N)NC(=O)[C@H](CCCNC(=N)N)NC(=O)[C@H](CSSC[C@H](NC(=O)[C@H](CCCCN)NC(=O)[C@H](CC(N)=O)NC(=O)[C@H]([C@@H](C)O)NC(=O)[C@H](CCCCN)NC(=O)[C@H](CCC(N)=O)NC(=O)[C@H](CO)NC(=O)[C@H](Cc4ccc(O)cc4)NC(=O)[C@H](Cc4ccc(O)cc4)NC(=O)[C@H](Cc4ccccc4)NC(=O)[C@H](C)NC(=O)[C@H](CO)NC(=O)[C@H](Cc4ccccc4)NC(=O)[C@H](Cc4ccccc4)NC(=O)CNC(=O)[C@H](CC(N)=O)NC3=O)C(=O)N[C@@H](Cc3c[nH]cn3)C(=O)N[C@@H](CO)C(=O)N[C@@H](Cc3ccccc3)C(=O)N[C@@H]([C@@H](C)O)C(=O)N[C@@H](Cc3ccc(O)cc3)C(=O)NCC(=O)NCC(=O)N2)NC(=O)[C@H](CCCCN)NC(=O)[C@H](CCC(=O)O)NC1=O` [U-Da2a], the “inhibition of 3H-AVP binding to V1aR” value (V1aR) was “did not inhibit”, the “inhibition of hERG” value (hERG) was “did not appear to exhibit significant inhibition” and the “inhibition of Kv1.5” value (Kv1.5) was “did not appear to exhibit significant inhibition”. The “inhibition of Kv4.3/KChIP2” value (Kv4.3/KChIP2) was “did not appear to exhibit significant inhibition”, the “inhibition of Cav1.2” value (Cav1.2) was “did not appear to exhibit significant inhibition” and the “agonist and antagonist activity on 157 GPCRs” value (157 GPCRs) was “detected only on V2R”.

Source: patent US9631001B2, “Peptide antagonists of the vasopressin-2 receptor” (COMMISSARIAT A L'ENERGIE ATOMIQUE ET AUX ENERGIES …, priority 2012, dated 2017)
